Paper doi:10.1101/2024.09.04.611242v3 (bioRxiv, 2024)

How the values were obtained:
PC12 cells [1] = assay: Toxicity of shuttles on PC12 cells; format: cell-based; conditions: 5 x 10^4 PC12 cells, 24h, 100% DMEM media
Selective Cu = format: binding; conditions: for Average half-time of Cu(II) withdrawal, Cu(II), D/F / Average half-time of Cu(II) withdrawal, Cu(II), DMEM 10%: Cu(II) alone, Cu(II)=shuttle=5 µM, 25°C, NBD emission at 545 nm, n=3; for Average half-time of Cu(II) withdrawal, Cu(II), D/F: D/F 100%; for Cu(II) withdrawn from D/F media over the measurement duration: D/F media spiked with 5 µM Cu(II), shuttle 5 µM, NBD emission followed for 5h
Cu(II)Aβ1-16 = Cu(II)Aβ1-16 (Homo sapiens, UniProt P05067); assay: Retrieval of Cu; format: binding; conditions: 25°C; for time to complete retrieval of Cu(II) from Aβ1-16: HEPES buffer / 10% DMEM, shuttle 5 µM, Aβ1-16 10 µM, Cu(II) 5 µM; for Kinetics of Cu(II) transfer from Aß1-16 to shuttle, DMEM 10%: shuttle=Cu(II)=5 µM, Aß1-16=10 µM, 10% DMEM, NBD emission 545 nm, n=3
[2] = Reduction/release of shuttle-bound Cu; format: physicochemical; conditions: 5 mM GSH, HEPES 100 mM pH 7.4
PC12 cells [3] = assay: Rescue of PC12 cells from Cu; format: cell-based; conditions: 5 µM shuttle, 10 µM Cu(II)Aβ1-16 0.5:1, AscH-, 10% DMEM, 24h, MTT, n=3
microglial cells in OHSC = assay: Microglia proliferation and activation in OHSC; format: cell-based, CD1 mice; conditions: 10 µM Cu(II)=shuttle, 20 µM Aβ1-40/42, 48h, Iba1 staining, n=3

CNC(=S)NN=CC=NNC(=S)NC [GTSM, glyoxal-bis(4-methylthiosemicarbazonato)]
toxicity to PC12 cells (in words) (PC12 cells [1]): toxic at nanomolar concentration

CN=C([S-])N/N=C/C=N/NC([S-])=NC.[Cu+2] [Cu(II)GTSM]
toxicity to PC12 cells (in words) (PC12 cells [1]): toxic to PC12 cells

H2N-His-Dap-His-αR5W4^NBD [HDapH-αR5W4^NBD]
Average half-time of Cu(II) withdrawal, Cu(II), D/F (Selective Cu): < 1 min | Average half-time of Cu(II) withdrawal, Cu(II), DMEM 10% (Selective Cu): < 1 min | Cu(II) withdrawn from D/F media over the measurement duration (Selective Cu): completely withdrew | time to complete retrieval of Cu(II) from Aβ1-16 (Cu(II)Aβ1-16): less than two minutes | Kinetics of Cu(II) transfer from Aß1-16 to shuttle, DMEM 10% (Cu(II)Aβ1-16): 14.5 ± 3.8 s | half-time of reduction of shuttle-bound Cu(II) by GSH (in words) [2]: only a few minutes | rescue of Cu(II)Aβ1-16-induced toxicity in PC12 cells (PC12 cells [3]): reversed | effect on Cu(II)(Aβ1-40/42)-induced microglial cell proliferation in OHSC (microglial cells in OHSC): reduced microglial cell proliferation

H2N-Dap-His-His-αR5W4^NBD [DapHH-αR5W4^NBD]
Average half-time of Cu(II) withdrawal, Cu(II), D/F (Selective Cu): 4.3 ± 0.6 min | Average half-time of Cu(II) withdrawal, Cu(II), DMEM 10% (Selective Cu): < 1 min | Cu(II) withdrawn from D/F media over the measurement duration (Selective Cu): > 80% | time to complete retrieval of Cu(II) from Aβ1-16 (Cu(II)Aβ1-16): less than two minutes | Kinetics of Cu(II) transfer from Aß1-16 to shuttle, DMEM 10% (Cu(II)Aβ1-16): 47.9 ± 9.2 s | half-time of reduction of shuttle-bound Cu(II) by GSH (in words) [2]: only a few minutes | rescue of Cu(II)Aβ1-16-induced toxicity in PC12 cells (PC12 cells [3]): reversed | effect on Cu(II)(Aβ1-40/42)-induced microglial cell proliferation in OHSC (microglial cells in OHSC): reduced microglial cell proliferation
